pIC50: −log10 of the molar value. Where two headings read alike, the source gives them in different places.
Molecular target: T1, yeast alcohol dehydrogenase (Saccharomyces cerevisiae, UniProt P00330)
T1 construct: gene ADH1
T1 sequence (P00330 2-348): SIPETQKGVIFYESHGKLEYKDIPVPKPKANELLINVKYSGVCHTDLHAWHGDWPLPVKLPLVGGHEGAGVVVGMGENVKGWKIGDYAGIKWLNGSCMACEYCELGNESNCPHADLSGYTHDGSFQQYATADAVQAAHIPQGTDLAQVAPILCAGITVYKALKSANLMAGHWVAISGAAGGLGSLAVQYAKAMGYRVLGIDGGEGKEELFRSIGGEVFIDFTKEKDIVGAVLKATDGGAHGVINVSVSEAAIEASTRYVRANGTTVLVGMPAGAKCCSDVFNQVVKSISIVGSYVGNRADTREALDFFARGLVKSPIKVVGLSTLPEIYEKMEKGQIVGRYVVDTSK
Test: NADH absorbance ([…] nm) enzyme assay of acetaldehyde reduction, 8-point dose response
Format: biochemical

## C#CCOc1c(Cl)cc(/C=C/[N+](=O)[O-])cc1OC [compound 7312219, 7312219]
  pIC50: 5.42

## COc1cc(C)c(/C=C/[N+](=O)[O-])cc1C(C)C [compound 7279172, 7279172]
  pIC50: 4.90

## COc1ccc(/C=C/[N+](=O)[O-])cc1Br [compound 7241889, 7241889]
  pIC50: 5.89

## CC(=O)c1ccc(O)c2c1C1C=CCC1C(c1ccc(Cl)cc1)N2 (stereo not shown) [compound 7172827, 7172827]
read-out: IC50 yADH ^c
  pIC50: 4.59
